{"source": "patent US9012439B2", "about": "“Use of electrophilic compounds for inducing platelet production or maintaining platelet function” (University of Rochester, priority 2007, dated 2015)", "key": {"[1]": {"system": "mouse megakaryocyte progenitors (Meg-CFC)", "test": "Megakaryocyte progenitor (Meg-CFC) assay on bone marrow of treated mice", "type": "in vivo", "method": "Primary mouse bone marrow cells were suspended in IMDM at a concentration of 8×10^6 cells/mL. Two-hundred thousand cells were plated in IMDM supplemented with 20% BIT9500, 0.2% 2-mercaptoethanol, 2% Glutamax, and 20% Cellgro-H20 (Mediatech, Herndon, Va.) and cultured with rhTPO (50 ng/mL), IL-3 (10 ng/mL) (Preprotech, Rocky Hill, N.J.), IL-6 (20 ng/mL) (Preprotech), IL-11 (Preprotech) (50 ng/mL), and collagen at 37° for 7 days (Tober et al., “The Megakaryocyte Lineage Originates from Hemangioblast Precursors and is an Integral Component Both of Primitive and of Definitive Hematopoiesis,” Blood 109:1433-1441 (2007), which is hereby incorporated by reference in its entirety). Collagen gels were dehydrated, fixed, and labeled with GPIbβ and GPV, modified by ABC (Vector Labs, Burlingame, Calif.), and developed in Vector Red (Vector Labs). Meg-CFC were defined by their ability to generate colonies containing at least three megakaryocytes."}, "[2]": {"system": "Meg-01 cells", "test": "Meg-01 morphology (phalloidin f-actin staining, transmission electron microscopy)", "type": "cell-based, human", "conditions": "10 μM", "method": "Cells were fixed and permeabilized with 0.1% triton-100 for 1 h at room temperature (RT). Subsequently, cells were blocked with 1% bovin serum albumin (BSA) in PBS-Tween 20 (0.1%) for 1 h at RT then stained with phalloidin-Alexa Fluor 488 (Invitrogen, 1:200) at RT for 2 h. Cells were mounted and visualized using an Olympus BX51 light microscope (Olympus, Melville, N.Y.).\nCells were fixed for 4 h in 2.5% glutaraldehyde in 0.1 M sodium cacodylate buffer. Post-fixation cells were placed in 1% osmium tetroxide in phosphate buffer, dehydrated in ethanol, embedded in EPON/Araldite epoxy resin and analyzed on a Hitachi H-7100 electron microscope."}, "[3]": {"system": "Meg-01 cells", "test": "Active-caspase protein in Meg-01 cells", "type": "cell-based, human", "conditions": "Meg-01 cells in the presence of 15d-PGJ2"}, "[4]": {"system": "primary mouse megakaryocytes", "test": "Platelet production from cultured mouse bone marrow megakaryocytes", "type": "cell-based, mouse (C57BL/6)", "method": "Bone marrow was isolated from the femora of male C57BL/6 mice (Jackson Laboratories, Bar Harbor, Me.) and plated at a concentration of 1×10^6 cells per well in 12-well plates in IMDM (Iscove's Modified Dulbecco's Media, Invitrogen) with 20% BIT 9500 (BSA, insulin, transferrin) and supplemented with 100 ng/mL of rhTPO. Cells were cultured for 5 days, following which 15d-PGJ2 (10 μM) was added to the culture medium for 24 h. On the sixth day, cells were examined by phase-contrast microscopy using an inverted microscope (Olympus IX81) and images were captured using SPOT RT software (New Hyde Park, N.Y.). Megakaryocytes were identified by preincubating with anti-mouse CD16/32 (FcγR-blocking antibody) and then incubating with PE-conjugated hamster anti-mouse CD41 antibody.\nPlatelets were isolated from megakaryocytes by centrifugation at 150 xg for 10 min. Supernatants underwent sequential centrifugation (500 xg for 10 min and 1000×g for 10 min). The remaining platelet pellet was fixed then permeabilized with a CD61 or CD41 antibody. 7-AAD (BD Pharmingen) was added for 10 min before analyzing the cells by flow cytometry. […]"}, "[5]": {"conditions": "mice injected 1 mg/kg for two consecutive days, 7 days of culture"}}}
{"smiles": "CCCCCC=CC=C1C(=O)C=C[C@@H]1CC=CCCCC(=O)O", "note": "[15d-PGJ2, 15-deoxy-Δ^12,14 prostaglandin J2]", "values": [{"measurement": "megakaryocyte number", "setting": "[1]", "result": "failed to increase megakaryocyte number"}, {"measurement": "megakaryocyte colony number (Meg-CFC)", "setting": "[1]; [5]", "result": "did not influence megakaryocyte colony number or colony size"}, {"measurement": "megakaryocyte colony size (Meg-CFC)", "setting": "[1]; [5]", "result": "did not influence megakaryocyte colony number or colony size"}, {"measurement": "percentage of megakaryocytes producing proplatelets", "setting": "[1]; [5]", "result": "significantly augmented the percentage of megakaryocytes producing proplatelets"}, {"measurement": "morphological changes by f-actin (phalloidin) staining", "setting": "[2]; within 1-2 h", "result": "Morphological changes, characteristic of megakaryopoiesis"}, {"measurement": "structural characteristics by transmission electron microscopy", "setting": "[2]; within 24 h", "result": "structural characteristics consistent with differentiating cells"}, {"measurement": "active-caspase protein", "setting": "[3]", "result": "upregulated active-caspase protein"}, {"measurement": "increase in percentage of CD61+ platelets in culture", "setting": "[4]; mouse bone marrow cultured 5 days with rhTPO, then 10 μM for 24 h", "result": "~14", "unit": "%"}, {"measurement": "megakaryocyte surface morphology", "setting": "[4]; mouse megakaryocytes, 10 μM, 24 h, microscopy", "result": "induced the appearance of ruffled edges on the megakaryocytes"}]}
